The text below walks through data of ChEMBL document CHEMBL1130703, “The use of neamine as a molecular template: inactivation of bacterial antibiotic resistance enzyme aminoglycoside 3'-phosphotransferase type IIa” (Bioorg Med Chem Lett, 1998).

Experiment [1] in a line: Ratio of kinetic catalyst/Km was determined.
The nature of experiment [2]: Km was determined by Cyanylated APH(3')-IIa method.
Experiment [3] in a line: Kinetic catalyst(Kcat) was determined by Cyanylated APH(3')-IIa method.
Experiment [4] can be described thus: Kinetic constant(Kcat) was determined by native APH(3')-IIa method.
The nature of experiment [5]: Michaelis constant was determined by native APH(3')-IIa method.

For `NC[C@H]1O[C@H](O[C@H]2[C@H](O)[C@@H](O)[C@H](N)C[C@@H]2N)[C@H](N)[C@@H](O)[C@@H]1O`, the Ratio was determined as 2.4e+07 M⁻¹ s⁻¹ in experiment [1] and 1.3e+06 M⁻¹ s⁻¹ in experiment [3]. The values for the Km in experiment [2] and in experiment [5] were 7.9 µM and 1.2 µM, respectively. Further, the k cat in experiment [3] turned out to be 9.93 s⁻¹; in experiment [4], 29 s⁻¹.

A word on the Km: it is the concentration of substrate that gives half-maximal velocity.
